Laboratory results published in patent publication US12116358B2, “Substituted indoles and methods of use thereof” (EPIZYME, INC., priority 2018, dated 2024).
Like-named read-outs stand apart in the source and are kept apart here.

How the values were obtained:
SETD2(1434-1711) = biological target: T1, SETD2(1434-1711) (Homo sapiens, UniProt Q9BYW2); assay: SETD2 (1434-1711) assay; type: biochemical; settings: read-out: SETD2 (1434-1711)
T1 construct: SETD2 (1434-1711) Assay; catalogue N/A
T1 sequence (Q9BYW2 1434-1711): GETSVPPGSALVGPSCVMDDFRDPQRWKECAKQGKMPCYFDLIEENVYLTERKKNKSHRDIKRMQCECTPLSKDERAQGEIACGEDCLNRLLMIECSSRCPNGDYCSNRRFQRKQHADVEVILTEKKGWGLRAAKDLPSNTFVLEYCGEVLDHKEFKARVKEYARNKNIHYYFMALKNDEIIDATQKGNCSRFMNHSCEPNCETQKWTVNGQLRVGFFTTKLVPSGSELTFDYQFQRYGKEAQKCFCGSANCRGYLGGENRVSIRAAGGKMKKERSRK

H3K36me3 in A549 cells = assay: In-Cell Western (ICW) assay of SETD2 inhibitors (A549 assay); type: cell-based, human; settings: A549 cells, read-out: SETD2 A549
Summary of the method: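 A549 cells seeded at 4,000/well onto compound and incubated 3 days at 37° C. Methanol-fixed cells stained overnight at 4° C with anti-H3K36me3 (1:1000), then IRDye 800CW secondary with DRAQ5 DNA counterstain. Plates read by Licor imaging at 700 and 800 channels.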

Structure (SMILES)	IC50 (SETD2(1434-1711))	IC50 (H3K36me3 in A549 cells; Homo sapiens)	IC50 (H3K36me3 in A549 cells)
CN[C@H]1CCN([C@@H]2CCC[C@@H](NC(=O)c3cc4c(F)ccc(C)c4[nH]3)C2)C1 [compound 1088]	2200 nM	> 2000 nM	
Cc1ccc(F)c2cc(C(=O)N[C@@H]3CCC[C@H](N4CC[C@H](N(C)C)C4=O)C3)[nH]c12 [compound 1090]	500 nM	1100 nM	
CC(=O)N1CCN([C@@H]2CCC[C@@H](NC(=O)c3cc4c(F)ccc(C)c4[nH]3)C2)[C@H](C)C1 [compound 1091]	5800 nM	> 2000 nM	
CC(=O)N1CCN([C@H]2CCC[C@@H](NC(=O)c3cc4c(F)ccc(C)c4[nH]3)C2)[C@H](C)C1 [compound 1092]	800 nM	800 nM	
CC[C@@H]1CN([C@@H]2CCC[C@@H](NC(=O)c3cc4c(F)ccc(C)c4[nH]3)C2)CCN1C(C)=O [compound 1095]	600 nM	> 2000 nM	
CC(=O)N1[C@H](C)CN([C@@H]2CCC[C@@H](NC(=O)c3cc4c(F)ccc(C)c4[nH]3)C2)C[C@@H]1C [compound 1096]	2400 nM	> 2000 nM	
CC(=O)N1CCN([C@@H]2CCC[C@@H](NC(=O)c3cc4c(F)ccc(C)c4[nH]3)C2)CC12CC2 [compound 1100]	900 nM	> 2000 nM	
Cc1ccc(F)c2cc(C(=O)NC3CCCC(N4CCN5C(=O)CN(C)C(=O)C5C4)C3)[nH]c12 (stereo not shown) [compound 1102]	3900 nM		> 2000 nM
Cc1ccc(F)c2cc(C(=O)NC3CCCC(N4CCN5C(=O)CN(C)C(=O)C5C4)C3)[nH]c12 (stereo not shown) [compound 1103]	100 nM		100 nM
CC(=O)N1CCN([C@H]2C[C@H](NC(=O)c3cc4c(F)ccc(C)c4[nH]3)CN(C)C2)CC1 [compound 1107]	5300 nM	> 2000 nM	
CC(=O)N1CCN([C@@H]2C[C@@H](NC(=O)c3cc4c(F)ccc(C)c4[nH]3)CN(C)C2)CC1 [compound 1108]	> 10000 nM	> 2000 nM	
CC(=O)N1CCN(C2CC(NC(=O)c3cc4c(F)ccc(C)c4[nH]3)CN(C)C2)CC1 (stereo not shown) [compound 1109]	> 10000 nM		> 2000 nM
CCN(C(=O)CO)C1CCN(C2CCCC(NC(=O)c3cc4c(F)ccc(C)c4[nH]3)C2)C1 (stereo not shown) [compound 1120]	5900 nM		> 2000 nM
CCN(C1CCN(C2CCCC(NC(=O)c3cc4c(F)ccc(C)c4[nH]3)C2)C1)S(C)(=O)=O (stereo not shown) [compound 1122]	1900 nM		> 2000 nM
CC(=O)N1C(C)CN(C2CCCC(NC(=O)c3cc4c(F)ccc(C)c4[nH]3)C2)CC1C (stereo not shown) [compound 1123]	500 nM		1400 nM
CC(=O)N1CCC(C2CCCC(NC(=O)c3cc4c(F)ccc(C)c4[nH]3)C2)CC1 (stereo not shown) [compound 1124]	200 nM		800 nM
Cc1ccc(F)c2cc(C(=O)N[C@@H]3CCC[C@@H](N4CCN5C(=O)N(C)C[C@@H]5C4)C3)[nH]c12 [compound 1127]	400 nM	1300 nM	
Cc1ccc(F)c2cc(C(=O)N[C@@H]3CCC[C@@H](N4CCN5C(=O)N(C)C[C@H]5C4)C3)[nH]c12 [compound 1128]	300 nM	1600 nM	
CCN(C(=O)CO)C1CCN(C2CCCC(NC(=O)c3cc4c(F)ccc(C)c4[nH]3)C2)C1 (stereo not shown) [compound 1130]	4000 nM		> 2000 nM

Structure (SMILES)	IC50 (SETD2(1434-1711))	IC50 (H3K36me3 in A549 cells; Homo sapiens)	IC50 (H3K36me3 in A549 cells)
CCN(C1CCN(C2CCCC(NC(=O)c3cc4c(F)ccc(C)c4[nH]3)C2)C1)S(C)(=O)=O (stereo not shown) [compound 1132]	2300 nM		> 2000 nM
Cc1ccc(F)c2cc(C(=O)NC3CCCC(N4CCN5C(=O)OCC5C4)C3)[nH]c12 (stereo not shown) [compound 1134]	1000 nM		> 2000 nM
Cc1ccc(F)c2cc(C(=O)NC3CCCC(N4CCN5C(=O)OCC5C4)C3)[nH]c12 (stereo not shown) [compound 1136]	700 nM		> 2000 nM
CC(=O)N1CCN(C2CCCC(NC(=O)c3cc4c(F)ccc(C)c4[nH]3)C2)C2(CC2)C1 (stereo not shown) [compound 1137]	2000 nM		> 2000 nM
Cc1ccc(F)c2cc(C(=O)NC3CCCC(N4CCN5C(=O)COCC5C4)C3)[nH]c12 (stereo not shown) [compound 1139]	500 nM		1700 nM
Cc1ccc(F)c2cc(C(=O)NC3CCCC(N4CCN5C(=O)COCC5C4)C3)[nH]c12 (stereo not shown) [compound 1141]	400 nM		1300 nM
Cc1ccc(F)c2cc(C(=O)NC3CCCC(N4CCn5c(nn(C)c5=O)C4)C3)[nH]c12 (stereo not shown) [compound 1142]	4800 nM		> 2000 nM
Cc1ccc(F)c2cc(C(=O)N[C@@H]3CCC[C@@H](N4CCn5c(cccc5=O)C4)C3)[nH]c12 [compound 1143]	1900 nM		> 2000 nM
Cc1ccc(F)c2cc(C(=O)NC3CCCC(N4CCC(N(C)C(=O)C(C)(C)O)C4)C3)[nH]c12 (stereo not shown) [compound 1145]	1800 nM		> 2000 nM
Cc1ccc(F)c2cc(C(=O)NC3CCCC(N4CCC(N(C)C(=O)C(C)(C)O)C4)C3)[nH]c12 (stereo not shown) [compound 1147]	1200 nM		> 2000 nM
CC(=NC#N)N1CCN(C2CCCC(NC(=O)c3cc4c(F)ccc(C)c4[nH]3)C2)CC1 (stereo not shown) [compound 1148]	900 nM		> 2000 nM
Cc1ccc(F)c2cc(C(=O)NC3CCCC(N4CCC(N(CCO)S(C)(=O)=O)C4)C3)[nH]c12 (stereo not shown) [compound 1150]	4200 nM		> 2000 nM
Cc1ccc(F)c2cc(C(=O)NC3CCCC(N4CCC(N(CCO)S(C)(=O)=O)C4)C3)[nH]c12 (stereo not shown) [compound 1151]	5800 nM		> 2000 nM
CNC(=NC#N)N1CCN(C2CCCC(NC(=O)c3cc4c(F)ccc(C)c4[nH]3)C2)CC1 (stereo not shown) [compound 1152]	1100 nM		> 2000 nM
Cc1cccc2cc(C(=O)NC(C)c3ccccc3Cl)[nH]c12 (stereo not shown) [compound 1154]	6000 nM		> 25000 nM
Cc1cccc2cc(C(=O)NC(C)c3ccccc3Cl)[nH]c12 (stereo not shown) [compound 1156]	2100 nM		19700 nM
COCC(=O)N(C)C1CCN(C2CCCC(NC(=O)c3cc4c(F)ccc(C)c4[nH]3)C2)C1 (stereo not shown) [compound 1160]	4300 nM		> 2000 nM
CC(=O)N1C(C)CN(C2CCCC(NC(=O)c3cc4c(F)ccc(C)c4[nH]3)C2)CC1C (stereo not shown) [compound 1162]	70 nM		200 nM

These reach a lower IC50 (SETD2(1434-1711)). Values come first.

IC50 (SETD2(1434-1711))	IC50 (H3K36me3 in A549 cells; Homo sapiens)	IC50 (H3K36me3 in A549 cells)	Structure (SMILES)
10 nM	500 nM		CN[C@H]1CCN([C@H]2CCC[C@@H](NC(=O)c3cc4c(F)ccc(C)c4[nH]3)C2)C1 [compound 1087]
30 nM	300 nM		CC(=O)N1CCN([C@H]2CCC[C@@H](NC(=O)c3cc4c(F)ccc(C)c4[nH]3)C2)C[C@H]1CO [compound 1098]
10 nM	100 nM		CC(=O)N1CCN([C@H]2CCC[C@@H](NC(=O)c3cc4c(F)ccc(C)c4[nH]3)C2)C[C@@H]1CO [compound 1099]
40 nM		200 nM	Cc1ccc(F)c2cc(C(=O)NC3CCCC(N4CCN5C(=O)CN(C)C(=O)C5C4)C3)[nH]c12 (stereo not shown) [compound 1104]
20 nM		70 nM	Cc1ccc(F)c2cc(C(=O)NC3CCCC(N4CCN5C(=O)OCC5C4)C3)[nH]c12 (stereo not shown) [compound 1111]
20 nM	20 nM		Cc1ccc(F)c2cc(C(=O)N[C@@H]3CCC[C@H](N4CCN(C(=O)C(C)C)C(C(F)(F)F)C4)C3)[nH]c12 (stereo partly shown) [compound 1112]
10 nM	10 nM		CCC(=O)N1CCN([C@H]2CCC[C@@H](NC(=O)c3cc4c(F)ccc(C)c4[nH]3)C2)CC1C(F)(F)F (stereo partly shown) [compound 1113]
40 nM	1600 nM		CN/C(=N\C#N)N1CCN([C@H]2CCC[C@@H](NC(=O)c3cc4c(F)ccc(C)c4[nH]3)C2)CC1 [compound 1114]
30 nM	200 nM		CN/C(=C\[N+](=O)[O-])N1CCN([C@H]2CCC[C@@H](NC(=O)c3cc4c(F)ccc(C)c4[nH]3)C2)CC1 [compound 1115]
20 nM	50 nM		C/C(=N\C#N)N1CCN([C@H]2CCC[C@@H](NC(=O)c3cc4c(F)ccc(C)c4[nH]3)C2)CC1 [compound 1116]
30 nM		10 nM	Cc1ccc(F)c2cc(C(=O)NC3CCCC(N4CCN(C(=O)CO)C(C(F)(F)F)C4)C3)[nH]c12 (stereo not shown) [compound 1117]
20 nM	80 nM		Cc1ccc(F)c2cc(C(=O)N[C@@H]3CCC[C@H](N4CCN5C(=O)N(C)C[C@H]5C4)C3)[nH]c12 [compound 1126]
10 nM		100 nM	CCN(C(=O)CO)C1CCN(C2CCCC(NC(=O)c3cc4c(F)ccc(C)c4[nH]3)C2)C1 (stereo not shown) [compound 1129]
6 nM		40 nM	CCN(C1CCN(C2CCCC(NC(=O)c3cc4c(F)ccc(C)c4[nH]3)C2)C1)S(C)(=O)=O (stereo not shown) [compound 1131]
20 nM		70 nM	Cc1ccc(F)c2cc(C(=O)NC3CCCC(N4CCN5C(=O)OCC5C4)C3)[nH]c12 (stereo not shown) [compound 1135]
10 nM		20 nM	Cc1ccc(F)c2cc(C(=O)NC3CCCC(N4CCN5C(=O)COCC5C4)C3)[nH]c12 (stereo not shown) [compound 1138]
50 nM		100 nM	Cc1ccc(F)c2cc(C(=O)NC3CCCC(N4CCN5C(=O)COCC5C4)C3)[nH]c12 (stereo not shown) [compound 1140]
40 nM		200 nM	Cc1ccc(F)c2cc(C(=O)NC3CCCC(N4CCC(N(C)C(=O)C(C)(C)O)C4)C3)[nH]c12 (stereo not shown) [compound 1146]
6 nM		900 nM	Cc1ccc(F)c2cc(C(=O)Nc3cc(Cl)cc(N4CCC(CCCN5CCCC5)CC4)c3)[nH]c12 [compound 1158]
